Experimental data published in patent US9095613B2, “Photosensitizer-metal nanoparticle charge complex and composition containing the complex for photodynamic therapy or diagnosis” (NATIONAL CANCER CENTER, priority 2009, dated 2015).
Read-outs that look alike come from different tables or passages of the source.

Columns and labels:
skin photosensitivity = conditions: patient after administration; cited from earlier work
[1] = at 630 nm; cited from earlier work
[2] = system: SCC7 (Squamous cell Carcinoma) cell line; experiment: Quantitative analysis of uptake into cells (fluorescence of cell lysis solution); type: cell-based; conditions: 5 μM AlPcS4 equivalent, 4 hours
Procedure: 90000 cells of a SCC7 (Squamous cell Carcinoma) cell line per well were seeded in a 96 well plate and cultured for 24 hours. Afterwards, the AlPcS4 and the GNR/AlPcS4 complex prepared in Preparation Example 2-4 were diluted with a cell culture medium containing serum to have an equivalent concentration of 5 μM AlPcS4. […] of the diluted solution per well was added, and maintained at 37° C. for 4 hours. Subsequently, after the cell culture medium containing the photosensitizer was removed, the cells were washed three times, and then treated with 200 μl of 0.1% SDS/0.1M NaOH solution for 2 hours for cell lysis. Then, a fluorescence signal of the AlPcS4 generated from this solution was measured (Ex. 660 nm, Em. 690 nm).

SCC7 cell line = experiment: Cell viability test after photodynamic therapy (CCK-8); type: cell-based; conditions: 5 μM AlPcS4 equivalent, 670 nm, 10 J/cm^2, after 24 hours
Procedure: 9000 cells of a SCC7 cell line per well were seeded in a 96 well plate, and cultured for 24 hours. After the AlPcS4 and the GNR/AlPcS4 complex prepared in Preparation Example 2-4 were diluted with a cell culture medium to have an equivalent concentration of 5 μM AlPcS4, 200 μl of the diluted solution per well was added and then maintained at 37° C. for 4 hours. For a control group, the same volume of cell culture medium was added to the plate. Afterwards, to remove the photosensitizer which was not taken up into the cell, the cells were washed with a cell culture medium twice, and then a fresh cell culture medium was added. The PDT-treated groups were irradiated with light at 670 nm using laser under conditions of a light dose density of 50 mW/cm^2 and light doses of 5 J/cm^2 and 10 J/cm^2. After 24 hours, cell viability was measured using a cell counting kit-8 (CCK-8, Dojindo Laboratories).

SCC7 xenograft tumor [3] = experiment: Near-infrared fluorescence imaging of tumor in xenograft model; type: in vivo, Balb/c-nu mice; conditions: 1 mg AlPcS4 equivalent/kg, tail vein, 24 hours after injection
Procedure: (§1) 2×10^6 cells per 100 μl of the SCC7 cell line were injected subcutaneously to hind legs of Balb/c-nu mice of 19 to 22 g to create xenograft tumor models. When a tumor was grown to a size of about […], 29 experimental animals were divided into three groups (Day 0) based on the tumor size. Among them, 6 mice were used for near-infrared fluorescence imaging using the photosensitizer, and the other 23 mice were used to observe an inhibitory effect on tumor growth through the photodynamic therapy. A volume of the tumor was calculated with an equation of height×length×width×0.5.
(§2) For each of the AlPcS4-treated group and the GNR/AlPcS4 complex-treated group, the drug (each of AlPcS4 and GNR/AlPcS4 complex prepared in Preparation Example 2-4) dissolved in PBS (6.7 mM, pH 7.4, NaCl 154 mM) was injected into a tail vein of a mouse at the dose of 1 mg AlPcS4 equivalent/kilogram body weight. […] To compare the near-infrared fluorescence image and the accumulated amount in the tumor of the injected photosensitizer, two mice were taken from each group after 24 hours from the treatment of the drug (Day 2), and therefrom fluorescence images of AlPcS4 were obtained using a near-infrared fluorescence image device (IVIS Lumina) (Cy5.5 channel; Ex. filter 615-665 nm, Em. Filter 695-770 nm).

SCC7 xenograft tumor [4] = experiment: Inhibition of tumor growth by photodynamic therapy in xenograft model; type: in vivo, Balb/c-nu mice; conditions: 1 mg AlPcS4 equivalent/kg i.v., 670 nm 60 J/cm^2
Procedure: as §1
as §2, with “nm). […]” for “nm).”

[5] = at 675 nm, known value; cited from earlier work

Compound | duration of side effect of skin photosensitivity (skin photosensitivity) | molar absorption coefficient [1] [M⁻¹ cm⁻¹] | effect of increasing amount of serum (FBS) on uptake into cells [2] | phototoxicity (SCC7 cell line) [%] | average fluorescence signal in tumor (SCC7 xenograft tumor [3]) [counts] | tumor-to-background ratio of the AlPcS4 fluorescence (SCC7 xenograft tumor [3]) | course of tumor size after photodynamic therapy (SCC7 xenograft tumor [4]) | size of the tumor relative to control group (SCC7 xenograft tumor [4]; fifth day) [%] | molar absorption coefficient [5] [M⁻¹ cm⁻¹]
C=Cc1c(C)c2cc3nc(c(CC(=O)N[C@@H](CC(=O)[O-])C(=O)[O-])c4nc(cc5[nH]c(cc1[nH]2)c(C)c5CC)C(C)=C4C(=O)[O-])[C@@H](CCC(=O)[O-])[C@@H]3C.[Na+].[Na+].[Na+].[Na+] [Mono-L-aspartyl chlorine e6, mono-L-aspartyl chlorine e6] | 1 week |  |  |  |  |  |  |  | 
Photofrin | more than 6 week | 1170 |  |  |  |  |  |  | 
Al(III) phthalocyanine chloride tetrasulfonic acid [AlPcS4] |  |  | greatly decreased | 64 | 7224 | 2.5 | temporarily decreased | 67 | 170000
